Assay results: paper PMC7070407, “Moringin, A Stable Isothiocyanate from Moringa oleifera, Activates the Somatosensory and Pain Receptor TRPA1 Channel In Vitro” (Molecules, 2020)

System: not transfected HEK-293 cells
Experiment: Effect on [Ca2+]i in not transfected HEK-293 cells (baseline)
Format: cell-based, human
Conditions: AITC 100 μM
Method: Compound and extracts’ effects on intracellular Ca^2+ concentration ([Ca^2+]i) were determined using the selective intracellular fluorescent probe for Ca^2+ Fluo-4. Assay of rat TRPA1, TRPV2, TRPV3, TRPV4, TRPM8 or human TRPV1 mediated elevation of intracellular Ca^2+ in transfected HEK-293 cells are been performed as described. Briefly, human embryonic kidney (HEK-293) cells, stably transfected with rat TRPA1, TRPV2, TRPV3, TRPV4, TRPM8 or human TRPV1 (selected by Geneticin 600 μg mL^−1) or not transfected, were cultured in EMEM + 2 mM Glutamine + 1% Non-Essential Amino Acids (NEAA) + 10% FBS and maintained at 37 °C with 5% CO2. Stable transfections were checked by quantitative real-time polymerase chain reaction (PCR), quantitative real-time PCR was performed by an iCycler-iQ (Bio-Rad, Hercules, CA, USA) in a 20 μL reaction mixture containing the following: 10 μL iQ SYBR Green Supermix 2X (Bio-Rad), 20 ng of cDNA (calculated on the basis of the retro-transcribed RNA), and 330 nM for each primer. […] Cell fluorescence before and after the addition of various concentrations of test compounds and extracts were measured normalizing the effects against the response to ionomycin (4 µM). […] The potency of the compounds (EC50 values) are determined as the concentration required to produce half-maximal increases in [Ca^2+]i. […]

## C=CCN=C=S [AITC, Allylisothiocyanate, reference compound]
  Effect on not transfected HEK-293 cells: about 1%
